Test results: BigSolDB 2.1

Conditions: in n-hexane

| solubility (mole fraction) (293.15 K) | solubility (mole fraction) (298.15 K) | solubility (mole fraction) (303.15 K) | solubility (mole fraction) (310.15 K) | solubility (mole fraction) (315.15 K) | Compound |
| --- | --- | --- | --- | --- | --- |
| 6.09e-05 | 7.93e-05 | 0.000101 | 0.000136 | 0.00017 | Clc1ccc(NC2=NCCC3(CCCCC3)S2)cc1 |
| 0.000124 | 0.000153 | 0.000189 | 0.00025 | 0.000295 | O=C(NC1=NCCC2(CCCCC2)S1)c1ccccc1 |
| 0.000149 | 0.000182 | 0.000221 | 0.000295 | 0.000357 | COc1ccc(NC2=NCCC3(CCCCC3)S2)cc1 |
| 0.000365 | 0.000431 | 0.000508 | 0.000617 | 0.000885 | CCc1ccc(NC2=NCCC3(CCCCC3)S2)cc1 |

The remaining lines, values behind:

| Compound | solubility (mole fraction) (293.15 K) | solubility (mole fraction) (298.15 K) | solubility (mole fraction) (303.15 K) | solubility (mole fraction) (310.15 K) | solubility (mole fraction) (315.15 K) |
| --- | --- | --- | --- | --- | --- |
| Cc1ccc(NC2=NCCC3(CCCCC3)S2)cc1Cl | 8.6e-06 | 1.15e-05 | 1.48e-05 | 2.15e-05 | 2.68e-05 |
| Cc1ccc(NC2=NCCC3(CCCCC3)S2)cc1 | 0.00028 | 0.000326 | 0.000379 | 0.000445 | 0.00052 |
| CC(=O)c1ccc(NC2=NCCC3(CCCCC3)S2)cc1 | 1.56e-05 | 1.93e-05 | 2.42e-05 | 3.23e-05 | 3.95e-05 |
| CC(C)c1ccc(NC2=NCCC3(CCCCC3)S2)cc1 | 0.000514 | 0.00061 | 0.000742 | 0.000919 | 0.0011 |
| c1ccc(NC2=NCCC3(CCCCC3)S2)cc1 | 0.00115 | 0.0013 | 0.00148 | 0.0019 | 0.00215 |
| Brc1ccc(NC2=NCCC3(CCCCC3)S2)cc1 | 2.46e-05 | 3.31e-05 | 4.34e-05 | 6.54e-05 | 8.27e-05 |
| FC(F)(F)c1ccc(NC2=NCCC3(CCCCC3)S2)cc1 | 0.000214 | 0.000272 | 0.000345 | 0.000424 | 0.00057 |
